Test results as given in patent US11008334B2, “Compositions and methods for treating cancer” (The Regents of the University of California, priority 2012, dated 2021).
Where two headings read alike, the source gives them in different places.

Columns and labels:
K-RasG12C (1-169) [1] = target: T1, K-RasG12C (1-169) (Homo sapiens, UniProt P01116, G12C); assay: Disulfide library (tethering) screen, covalent modification by mass spectrometry; type: binding; details: 200 micM BME; read-out: Potency/ Labeling (EC50 at 200 micM BME) Tethering
T1 construct: Un-tagged recombinant K-Ras G12C (1-169) at 4 μM in Buffer A; hexahistidine (cleaved yes); made in house; host or cells: Escherichia coli BL21 (DE)

K-RasG12C (1-169) [2] = target: T1, K-RasG12C (1-169); assay: Mass spectrometric screen for extent of covalent labeling; type: binding; details: for percent covalent labeling at 10 µM: 10 micromolar; for Labeling % (10 micM) 24h: 10 micM compound, (plate) or (single) measurement
Method: Un-tagged recombinant K-Ras G12C (1-169) at 4 μM in Buffer A was reacted with inhibitors at 200 μM or 10 μM (2% DMSO final). At 2, 6, and 24 hrs, 10 μL aliquots were removed and the reactions were stopped by addition of 1 μL 2% formic acid. The extent of modification was determined by mass spectrometry.

[3] = system: binding of RasGTP to Raf1-RBD; assay: Raf1-RBD pull-downs; details: after EDTA-catalyzed exchange
G12C cell lines = assay: Proliferation of human lung cancer cell lines; type: cell-based; details: 24 hr treatment (0.5% FBS), 48 hr washout (10% FBS)
[4] = 2 h, 2 hrs, read-out: Percent reduction in activity of compound at 10 micromolar relative to control (no compound), 2 hrs
[5] = 6 h, 6 hrs, read-out: Percent reduction in activity of compound at 10 micromolar relative to control (no compound), 6 hrs
[6] = 24 h, 24 hrs, read-out: Percent reduction in activity of compound at 10 micromolar relative to control (no compound), 24 hrs

Row | SMILES | EC50 (K-RasG12C (1-169) [1]) [µM] | percent covalent labeling at 10 µM (K-RasG12C (1-169) [2]; [4]) [%] | percent covalent labeling at 10 µM (K-RasG12C (1-169) [2]; [5]) [%] | percent covalent labeling at 10 µM (K-RasG12C (1-169) [2]; [6]) [%] | Labeling % (10 micM) 24h (K-RasG12C (1-169) [2]; Table 5) | binding of RasGTP to Raf1-RBD [3] | sensitivity of proliferation of G12C cell lines (G12C cell lines) | Labeling % (10 micM) 24h (K-RasG12C (1-169) [2])
1 | O=C(NCCS)C1CCN(C(=O)COc2ccc(Cl)cc2Cl)CC1 [JO-01-148] | 40 to 60 |  |  |  |  |  |  | 
2 | C=CS(=O)(=O)NC1CCN(C(=O)COc2cc(Cl)c(Cl)cc2O)CC1 [Ras-063] |  | ≤ 5 | 5 to 20 | 20 to 40 |  |  |  | 
3 | C=CS(=O)(=O)NC1CCN(C(=O)CNc2cc(OC)c(Cl)cc2OC)CC1 [Ras-064] |  | ≤ 5 | ≤ 5 | 20 to 40 |  |  |  | 
4 | C=CS(=O)(=O)NC1CCN(C(=O)CNc2cc(C(F)(F)F)c(Cl)cc2OC)CC1 [Ras-065] |  | ≤ 5 | 5 to 20 | 20 to 40 |  |  |  | 
5 | C=CC(=O)N1CCN(C(=O)CNc2cc(C(F)(F)F)c(Cl)cc2OC)CC1 [Ras-066] |  | ≤ 5 | ≤ 5 | 5 to 20 |  |  |  | 
6 | C=CS(=O)(=O)NC1CCN(C(=O)COc2ccc(Cl)cc2C(F)(F)F)CC1 [Ras-067] |  | ≤ 5 | ≤ 5 | 5 to 20 |  |  |  | 
7 | C=CS(=O)(=O)NC1CCN(CC(=O)Nc2cc(Cl)c(Cl)cc2I)CC1 [Ras-068] |  | ≤ 5 | ≤ 5 | ≤ 5 |  |  |  | 
8 | C#CCOc1cc(OCC(=O)N2CCC(NS(=O)(=O)C=C)CC2)c(Cl)cc1Cl [Ras-069] |  | ≤ 5 | 5 to 20 | > 60 | +++ (single) (20%< +++ <=40%) |  |  | 
9 | C=CS(=O)(=O)NC1CCN(C(=O)COc2cc(CCO)c(Cl)cc2Cl)CC1 [Ras-070] |  | ≤ 5 | ≤ 5 | 20 to 40 |  |  |  | 
10 | C#Cc1cc(OCC(=O)N2CCC(NS(=O)(=O)C=C)CC2)c(Cl)cc1Cl [Ras-071] |  | ≤ 5 | ≤ 5 | 40 to 60 |  |  |  | 
11 | C=CS(=O)(=O)N1CCC(Nc2cc(-c3cc(Cl)c(Cl)cc3I)ccn2)CC1 [Ras-072] |  | ≤ 5 | ≤ 5 | ≤ 5 |  |  |  | 
12 | C=CC(=O)N1CCN(C(=O)CNc2cc(Cl)c(Cl)cc2O)CC1 [Ras-073] |  |  | 20 to 40 | > 60 |  |  |  | 
13 | C=CS(=O)(=O)NC1CCN(C(=O)COc2cc(C(C)(C)O)c(Cl)cc2Cl)CC1 [Ras-074] |  |  |  | 40 to 60 |  |  |  | 
14 | C=CS(=O)(=O)NC1CCN(C(=O)CNc2cc(OC)c(Cl)cc2I)CC1 [Ras-077] |  |  | 5 to 20 | > 60 |  |  |  | 
15 | C=CS(=O)(=O)NC1CCN(C(=O)CNc2cc(I)c(Cl)cc2OC)CC1 [Ras-079] |  | 20 to 40 | > 60 | > 60 | +++++ (single) (60% < +++++) |  |  | 
16 | C=CC(=O)N1CCN(C(=O)CNc2cc(I)c(Cl)cc2OC)CC1 [Ras-080] |  |  |  | 20 to 40 |  |  |  | 
17 | C=CS(=O)(=O)NC1CCN(C(=O)CNc2cc(-c3ccccc3)c(Cl)cc2OC)CC1 [Ras-082] |  |  | 20 to 40 | > 60 |  |  |  | 
18 | C=CC(=O)N1CCN(C(=O)CNc2cc(I)c(Cl)cc2O)CC1 [Ras-083] |  |  | 20 to 40 | > 60 |  | impairs binding of RasGTP to Raf1-RBD | significantly more sensitive | 
19 | C=CS(=O)(=O)NC1CCN(C(=O)CNc2cc(I)c(Cl)cc2O)CC1 [Ras-084] |  | 20 to 40 | > 60 | > 60 |  |  |  | 

Row | SMILES | EC50 (K-RasG12C (1-169) [1]) [µM] | percent covalent labeling at 10 µM (K-RasG12C (1-169) [2]; [4]) [%] | percent covalent labeling at 10 µM (K-RasG12C (1-169) [2]; [5]) [%] | percent covalent labeling at 10 µM (K-RasG12C (1-169) [2]; [6]) [%] | Labeling % (10 micM) 24h (K-RasG12C (1-169) [2]; Table 5) | binding of RasGTP to Raf1-RBD [3] | sensitivity of proliferation of G12C cell lines (G12C cell lines) | Labeling % (10 micM) 24h (K-RasG12C (1-169) [2])
20 | C=CS(=O)(=O)NC1CCN(C(=O)CNc2cc(CC)c(Cl)cc2OC)CC1 [Ras-085] |  | 5 to 20 | 20 to 40 | > 60 |  |  |  | 
21 | C=CS(=O)(=O)NC1CCN(C(=O)CNc2cc(-c3ccccc3)c(Cl)cc2I)CC1 [Ras-086] |  |  |  | 40 to 60 |  |  |  | 
22 | C=CS(=O)(=O)NC1CCN(C(=O)COc2c(Cl)cc(Cl)c3cccnc23)CC1 [UP-I-154A] |  | ≤ 5 | ≤ 5 | ≤ 5 |  |  |  | 
23 | C=CS(=O)(=O)NC1CCN(C(=O)CSc2cn(CC)c3ccccc23)CC1 [UP-I-154B] |  | ≤ 5 | ≤ 5 | ≤ 5 |  |  |  | 
24 | C=CS(=O)(=O)NC1CCN(C(=O)COc2ncnc3sc(C)cc23)CC1 [UP-I-154K] |  | ≤ 5 | ≤ 5 | ≤ 5 |  |  |  | 
25 | C=CS(=O)(=O)NC1CCN(C(=O)CSc2nc3cc(C)ccc3[nH]2)CC1 [UP-I-160B] |  | ≤ 5 | ≤ 5 | ≤ 5 |  |  |  | 
26 | C=CS(=O)(=O)NC1CCN(C(=O)COc2c(Cl)cc(Cl)cc2NC(=O)OC(C)(C)C)CC1 [UP-I-162B] |  | ≤ 5 | ≤ 5 | ≤ 5 |  |  |  | 
27 | C=CS(=O)(=O)NC1CCN(C(=O)CSc2nnc(C)s2)CC1 [UP-I-164A] |  | ≤ 5 | ≤ 5 | ≤ 5 |  |  |  | 
28 | C=CS(=O)(=O)NC1CCN(C(=O)CSc2nnc(C)o2)CC1 [UP-I-164B] |  | ≤ 5 | ≤ 5 | ≤ 5 |  |  |  | 
29 | C=CS(=O)(=O)NC1CCN(C(=O)CSc2n[nH]c(C)n2)CC1 [UP-I-164C] |  | ≤ 5 | ≤ 5 | ≤ 5 |  |  |  | 
30 | C=CS(=O)(=O)NC1CCN(C(=O)COc2c(Cl)cc(Cl)cc2-c2ccno2)CC1 [UP-I-165B] |  | ≤ 5 | ≤ 5 | ≤ 5 |  |  |  | 
31 | C=CS(=O)(=O)NC1CCN(C(=O)COc2ccc3nncn3n2)CC1 [UP-I-165C] |  | ≤ 5 | ≤ 5 | ≤ 5 |  |  |  | 
32 | C=CS(=O)(=O)NC1CCN(C(=O)CSc2nc(C)cs2)CC1 [UP-I-165D] |  | ≤ 5 | ≤ 5 | ≤ 5 |  |  |  | 
33 | C=CS(=O)(=O)NC1CCN(C(=O)COc2c(Cl)cc(Cl)c3c2OC(C)(C)O3)CC1 [UP-I-177C] |  | ≤ 5 | 5 to 20 | 40 to 60 | ++++ (plate) (40% < ++++ <=60%) |  |  | ++++ (plate) (40% < ++++ <=60%)
34 | C=CS(=O)(=O)NC1CCN(C(=O)COc2c(Br)cc(Br)c3c2OC(C)(C)O3)CC1 [UP-I-177D] |  | ≤ 5 | ≤ 5 | > 60 |  |  |  | 
35 | C=CS(=O)(=O)NC1CCN(C(=O)CNc2c(Cl)cc(Cl)c3nsnc23)CC1 [UP-I-185a] |  | 5 to 20 | 20 to 40 | > 60 | +++++ (single) (60% < +++++) |  |  | +++++ (single) (60% < +++++)
36 | C=CS(=O)(=O)NC1CCN(C(=O)COc2c(N)cc(Cl)cc2Cl)CC1 [UP-I-185b] |  | ≤ 5 | ≤ 5 | 5 to 20 |  |  |  | 
37 | C=CS(=O)(=O)NC1CCN(C(=O)CNc2c(Cl)cc(Cl)c3nonc23)CC1 [UP-I-187] |  | ≤ 5 | ≤ 5 | 20 to 40 | +++ (single) (20%< +++ <=40%) |  |  | 
